Reference: US20240277722A1, “CANCER THERAPY USING A COMBINATION OF CDK7 INHIBITOR WITH AN ANTI-CANCER AGENT” (Aurigene Oncology Limited, priority 2021, published 2024)
Several values for one entry are separate records, joined by “and”; a condition that tells them apart may be missing. Identical values can stand only once.

Assays:
[1] = tested on: MCF-7 cells; test: MCF-7 cell proliferation, CTG reagent, 6-day treatment, single agents and combination (CompuSyn synergy analysis); format: cell-based
Protocol: The effect of 6-day compound treatment on cell proliferation was measured using CTG reagent.

[2] = tested on: Z-138 cells; test: Z-138 cell proliferation, CTG reagent, 3-day treatment, single agents and combination (CompuSyn synergy analysis); format: cell-based; conditions: for % Inhibition in proliferation: 3 days
Protocol: Z-138 cells were treated with serial dilutions of Compound-44A (CDK7 inhibitor), serial dilutions of venetoclax individually and in combination for 3 days. The effect of 3-day compound treatment on cell proliferation was measured using CTG reagent. Percentage inhibition of cell proliferation in individual (Compound-44A, venetoclax) and combination treatments (Compound-44A+venetoclax) were analyzed using CompuSyn software to assess synergy.

Compound: C[C@]12CC[C@@H]3c4ccc(O)cc4C[C@@H](CCCCCCCCC[S+]([O-])CCCC(F)(F)C(F)(F)F)[C@H]3[C@@H]1CC[C@@H]2O (stereo partly shown) [Fulvestrant, fulvestrant]
- % Inhibition in proliferation ([1]; Fulvestrant 0.000000164 nM + Compound-44A 0.00 nM, 6 days): 2.8%
- % Inhibition of proliferation ([1]; Fulvestrant 0.000000164 nM, Day-6): 0.6% and 2.7% and 4.9%
- % Inhibition in proliferation ([1]; Fulvestrant 0.000000819 nM + Compound-44A 0.00 nM, 6 days): 10.4%
- % Inhibition in proliferation ([1]; Fulvestrant 0.000004096 nM + Compound-44A 0.00 nM, 6 days): 5.0%
- % Inhibition of proliferation ([1]; Fulvestrant 0.000004096 nM, Day-6): 6.6% and 7.7% and 0.7%
- % Inhibition in proliferation ([1]; Fulvestrant 0.00002048 nM + Compound-44A 0.00 nM, 6 days): 7.1%
- % Inhibition of proliferation ([1]; Fulvestrant 0.00002048 nM, Day-6): 7.2% and 5.9%
- % Inhibition in proliferation ([1]; Fulvestrant 0.0001024 nM + Compound-44A 0.00 nM, 6 days): 0.9%
- % Inhibition of proliferation ([1]; Fulvestrant 0.0001024 nM, Day-6): 4.2% and −1.2% and −0.1%
- % Inhibition in proliferation ([1]; Fulvestrant 0.000512 nM + Compound-44A 0.00 nM, 6 days): 7.5%
- % Inhibition of proliferation ([1]; Fulvestrant 0.000512 nM, Day-6): 3.2% and 7.4% and 11.8%
- % Inhibition in proliferation ([1]; Fulvestrant 0.00256 nM + Compound-44A 0.00 nM, 6 days): 3.4%
- % Inhibition in proliferation ([1]; Fulvestrant 0.0128 nM + Compound-44A 0.00 nM, 6 days): 1.5%
- % Inhibition in proliferation ([1]; Fulvestrant 0.064 nM + Compound-44A 0.00 nM, 6 days): −1.2%
- % Inhibition of proliferation ([1]; Fulvestrant 0.064 nM, Day-6): 3.9% and −2.5% and −5%
- % Inhibition in proliferation ([1]; Fulvestrant 0.32 nM + Compound-44A 0.00 nM, 6 days): 24.2%
- % Inhibition of proliferation ([1]; Fulvestrant 0.32 nM, Day-6): 27.7% and 23.3%
- % Inhibition in proliferation ([1]; Fulvestrant 1.6 nM + Compound-44A 0.00 nM, 6 days): 79.8%
- % Inhibition of proliferation ([1]; Fulvestrant 1.6 nM, Day-6): 78.6% and 80%
- % Inhibition in proliferation ([1]; Fulvestrant 8 nM + Compound-44A 0.00 nM, 6 days): 87.5%
- % Inhibition of proliferation ([1]; Fulvestrant 8 nM, Day-6): 88.4% and 86.3%
- % Inhibition in proliferation ([1]; Fulvestrant 40 nM + Compound-44A 0.00 nM, 6 days): 86.9%
- % Inhibition of proliferation ([1]; Fulvestrant 40 nM, Day-6): 86%
- % Inhibition in proliferation ([1]; Fulvestrant 1000 nM + Compound-44A 0.00 nM, 6 days): 88.7%
- % Inhibition of proliferation ([1]; Fulvestrant 1000 nM, Day-6): 90.2%
- % Inhibition in proliferation ([1]; Fulvestrant 3000 nM + Compound-44A 0.00 nM, 6 days): 90.0%
- % Inhibition of proliferation ([1]; Fulvestrant 3000 nM, Day-6): 90.6% and 89.5%
- % Inhibition in proliferation ([1]; Fulvestrant 10000 nM + Compound-44A 0.00 nM, 6 days): 95.0%
- % Inhibition of proliferation ([1]; Fulvestrant 10000 nM, Day-6): 95.7% and 95.1%
- inhibition at 20.48 fM ([1]; Homo sapiens, MCF7, Fulvestrant 0.00002048 nM, Day-6): 8.1%
- inhibition at 0.00032 µM ([1]; Homo sapiens, MCF7, Fulvestrant 0.32 nM, Day-6): 21.6%
- inhibition at 0.0016 µM ([1]; Homo sapiens, MCF7, Fulvestrant 1.6 nM, Day-6): 80.9%
- inhibition at 0.008 µM ([1]; Homo sapiens, MCF7, Fulvestrant 8 nM, Day-6): 87.8%
- inhibition at 0.04 µM ([1]; Homo sapiens, MCF7, Fulvestrant 40 nM, Day-6): 85.9%
- inhibition at 0.2 µM ([1]; Homo sapiens, MCF7, Fulvestrant 200 nM, Day-6): 85.8%
- inhibition at 1 µM ([1]; Homo sapiens, MCF7, Fulvestrant 1000 nM, Day-6): 88.8%
- inhibition at 3 µM ([1]; Homo sapiens, MCF7, Fulvestrant 3000 nM, Day-6): 89.9%
- inhibition at 10 µM ([1]; Homo sapiens, MCF7, Fulvestrant 10000 nM, Day-6): 94.3%
- inhibition of proliferation in MCF-7 cells ([1]; single agent, serial dilutions, 6 days): dose dependent inhibition of proliferation

Compound: CC1(C)CCC(CN2CCN(c3ccc(C(=O)NS(=O)(=O)c4ccc(NCC5CCOCC5)c([N+](=O)[O-])c4)c(Oc4cnc5[nH]ccc5c4)c3)CC2)=C(c2ccc(Cl)cc2)C1 [Venetoclax, venetoclax]
- inhibition at 0.004572 µM ([2]; Homo sapiens, Z-138, Venetoclax 0.004572 μM, Day-3): 7.4%
- inhibition at 0.013717 µM ([2]; Homo sapiens, Z-138, Venetoclax 0.013717 μM, Day-3): 18.9%
- inhibition at 0.041152 µM ([2]; Homo sapiens, Z-138, Venetoclax 0.041152 μM, Day-3): 35.6%
- inhibition at 0.123457 µM ([2]; Homo sapiens, Z-138, Venetoclax 0.123457 μM, Day-3): 49.8%
- inhibition at 0.37037 µM ([2]; Homo sapiens, Z-138, Venetoclax 0.370370 μM, Day-3): 63.8%
- inhibition at 1.11111 µM ([2]; Homo sapiens, Z-138, Venetoclax 1.111111 μM, Day-3): 75.6%
- inhibition at 3.33333 µM ([2]; Homo sapiens, Z-138, Venetoclax 3.333333 μM, Day-3): 90.5%
- inhibition at 10 µM ([2]; Homo sapiens, Z-138, Venetoclax 10.000000 μM, Day-3): 99.7%
- inhibition at 30 µM ([2]; Homo sapiens, Z-138, Venetoclax 30.000000 μM, Day-3): 99.9%
- % Inhibition in proliferation ([2]; Venetoclax 0.000006 μM + Compound-44A 0.0 μM): −3.0%
- % Inhibition of proliferation ([2]; Venetoclax 0.000006 μM, Day-3): 1.6% and −2.7% and −8.2%
- % Inhibition in proliferation ([2]; Venetoclax 0.000019 μM + Compound-44A 0.0 μM): −10.0%
- % Inhibition in proliferation ([2]; Venetoclax 0.000169 μM + Compound-44A 0.0 μM): −9.0%
- % Inhibition in proliferation ([2]; Venetoclax 0.000508 μM + Compound-44A 0.0 μM): −10.0%
- % Inhibition in proliferation ([2]; Venetoclax 0.001524 μM + Compound-44A 0.0 μM): −0.2%
- % Inhibition in proliferation ([2]; Venetoclax 0.004572 μM + Compound-44A 0.0 μM): 8.0%
- % Inhibition of proliferation ([2]; Venetoclax 0.004572 μM, Day-3): 6.3% and 11.2%
- % Inhibition in proliferation ([2]; Venetoclax 0.013717 μM + Compound-44A 0.0 μM): 19.0%
- % Inhibition of proliferation ([2]; Venetoclax 0.013717 μM, Day-3): 19.7%
- % Inhibition in proliferation ([2]; Venetoclax 0.041152 μM + Compound-44A 0.0 μM): 33.0%
- % Inhibition of proliferation ([2]; Venetoclax 0.041152 μM, Day-3): 29.6% and 34.7%
- % Inhibition in proliferation ([2]; Venetoclax 0.123457 μM + Compound-44A 0.0 μM): 53.0%
- % Inhibition of proliferation ([2]; Venetoclax 0.123457 μM, Day-3): 53.8% and 55.1%
- % Inhibition in proliferation ([2]; Venetoclax 0.370370 μM + Compound-44A 0.0 μM): 65.0%
- % Inhibition of proliferation ([2]; Venetoclax 0.370370 μM, Day-3): 65.2% and 66.6%
- % Inhibition in proliferation ([2]; Venetoclax 1.111111 μM + Compound-44A 0.0 μM): 76.0%
- % Inhibition of proliferation ([2]; Venetoclax 1.111111 μM, Day-3): 73.5% and 78.1%
- % Inhibition in proliferation ([2]; Venetoclax 3.333333 μM + Compound-44A 0.0 μM): 92.0%
- % Inhibition of proliferation ([2]; Venetoclax 3.333333 μM, Day-3): 91.6% and 92.6%
- % Inhibition in proliferation ([2]; Venetoclax 10.0 μM + Compound-44A 0.0 μM): 100.0%
- % Inhibition of proliferation ([2]; Venetoclax 10.000000 μM, Day-3): 99.8% and 100%
- % Inhibition in proliferation ([2]; Venetoclax 30.0 μM + Compound-44A 0.0 μM): 100.0%
- % Inhibition of proliferation ([2]; Venetoclax 30.000000 μM, Day-3): 100.1%
- % Inhibition in proliferation ([2]; Venetoclax […] + Compound-44A 0.0 μM): −10.0%
